Measurements published in US11377429B2, “Benzothia(di)azepine compounds and their use as bile acid modulators” (Albireo AB, priority 2020, dated 2022).

Experiments:
Human IBAT = target: T1, Human IBAT (Homo sapiens, UniProt Q12908); experiment: IBAT (h/m) assay, human IBAT-overexpressing cells, 3H-taurocholic acid uptake; assay type: cell-based; details: read-out: hIBAT IC50
T1 construct: expressed in transfected cells; cultured under Puromycin selection
T1 sequence (Q12908 1-348): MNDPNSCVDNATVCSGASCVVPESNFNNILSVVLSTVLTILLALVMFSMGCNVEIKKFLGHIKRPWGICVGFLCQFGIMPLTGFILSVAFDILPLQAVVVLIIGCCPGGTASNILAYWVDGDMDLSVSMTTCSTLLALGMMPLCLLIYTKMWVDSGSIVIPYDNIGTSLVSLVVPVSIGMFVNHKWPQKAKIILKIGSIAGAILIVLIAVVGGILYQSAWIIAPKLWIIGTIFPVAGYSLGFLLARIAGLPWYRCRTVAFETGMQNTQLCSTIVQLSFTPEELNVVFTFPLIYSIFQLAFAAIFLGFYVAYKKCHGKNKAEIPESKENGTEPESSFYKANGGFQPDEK
Protocol: IBAT (h/m) Assay Protocol
10,000 cells (Human or Mouse IBAT-overexpressing cells) were seeded in 96-wells plate (Corning CLS3809) in 200 μL MEM-alpha medium (Gibco 12571-063) supplemented with 10% FBS (Gibco 10438026) containing Puromycin (Gibco A1113803) (10 μg/mL) and incubated at 37° C. in 5% CO2 for 48 hours. After incubation, media was decanted from the wells and cells were washed two times with 300 μL of basal MEM-alpha medium (FBS-free). After decanting basal MEM-alpha medium each time, plates were tapped against paper towel to ensure maximum removal of residual media. Test inhibitor dilutions (highest test concentration being 10 μM, 3-fold serial dilution, 10 points) prepared in DMSO (Sigma D2650) were added in incubation mix (maintaining 0.2% final DMSO concentration) containing 0.25 μM 3H-taurocholic acid (ARC ART-1368) and 5 μM of cold taurocholic acid (Sigma T4009). 50 μL of incubation mix containing test inhibitors was then added to the wells (in duplicate) and the plates were incubated for 20 minutes in a CO2 incubator at 37° C. After incubation, the reaction was stopped by keeping the plates on ice water mix for 2-3 minutes and then the incubation mix was aspirated completely from the wells. The wells were washed two times with 250 μL of chilled unlabeled 1 mM taurocholic acid dissolved in HEPES (Gibco 15630080)-buffered (10 mM) HBSS (Gibco 14175079) (pH 7.4). The plates were tapped against a paper towel after every wash to ensure maximum removal of blocking buffer. 100 μL of MicroScint-20 (PerkinElmer 6013621) was added to the wells and kept overnight at room temperature before reading the plates in TopCount NXT™ Microplate Scintillation and Luminescence Counter from PerkinElmer under 3H Test protocol (set at 120 seconds reading time per well).
(§1) Preparation of Test Compound Dilutions
(§2) All test compounds were provided in powder form at room temperature. 10 mM DMSO stocks of the test compounds were prepared, aliquoted and stored at −20° C. From the 10 mM DMSO stock of the compounds, a 3-fold serial dilution in DMSO was prepared to get a total of 10 dilutions of the test compounds. 0.5 μL of this dilution in DMSO was added to 250 μL of FBS-free basal media containing 3H-taurocholic acid and cold taurocholic acid to prepare the incubation mixture.

Human LBAT = target: T2, Human LBAT (Homo sapiens, UniProt Q14973); experiment: LBAT (h/m) assay, human LBAT-overexpressing cells, 3H-taurocholic acid uptake; assay type: cell-based; details: read-out: hLBAT IC50
T2 construct: expressed in transfected cells; cultured under Geneticin selection
T2 sequence (Q14973 1-349): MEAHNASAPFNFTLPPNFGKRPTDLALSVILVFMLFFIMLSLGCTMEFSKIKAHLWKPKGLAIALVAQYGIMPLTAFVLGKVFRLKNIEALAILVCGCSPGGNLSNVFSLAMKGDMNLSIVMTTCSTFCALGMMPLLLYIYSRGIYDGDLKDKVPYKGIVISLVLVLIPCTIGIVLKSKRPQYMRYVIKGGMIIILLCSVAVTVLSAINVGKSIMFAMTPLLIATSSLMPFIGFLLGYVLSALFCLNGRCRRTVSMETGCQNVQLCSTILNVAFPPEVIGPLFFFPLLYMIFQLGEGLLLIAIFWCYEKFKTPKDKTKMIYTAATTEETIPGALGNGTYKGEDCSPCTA
Protocol: LBAT (h/m) Assay Protocol
20,000 cells (Human or Mouse LBAT-overexpressing cells) were seeded in 96-wells plate (Corning CLS3809) in 100 μL MEM-alpha medium (Gibco 12571-063) supplemented with 10% FBS (Gibco 10438026) containing Geneticin (Gibco 10131-027) (1 mg/mL) and incubated at 37° C. in 5% CO2 for 24 hours. After incubation, media was decanted from the wells and cells were washed two times with 300 μL of basal MEM-alpha medium (FBS-free). After decanting basal MEM-alpha medium each time, plates were tapped against paper towel to ensure maximum removal of residual media. For human LBAT, incubation mix was prepared by adding test inhibitor dilutions (3-fold serial dilution in DMSO (Sigma D2650), 10 points) in MEM-alpha (without FBS) containing 0.3 μM 3H-taurocholic acid (ARC ART-1368) and 7.5 μM cold taurocholic acid (Sigma T4009) (maintaining 0.2% final DMSO concentration). For mouse LBAT, incubation mix was prepared by adding test inhibitor dilutions (3-fold serial dilution in DMSO, 10 points) in MEM-alpha (without FBS) containing 0.3 μM 3H-taurocholic acid and 25 μM cold taurocholic acid maintaining 0.2% final DMSO concentration). 50 μL of incubation mix containing test inhibitors was then added to the wells (in duplicate) and the plates were incubated for 20 minutes in a CO2 incubator at 37° C. After incubation, the reaction was stopped by keeping the plates on ice water mix for 2-3 minutes and then the incubation mix was aspirated completely from the wells. The wells were washed two times with 250 μL of chilled unlabeled 1 mM taurocholic acid dissolved in HEPES (Gibco 15630080)-buffered (10 mM) HBSS (Gibco 14175079) (pH 7.4). The plates were tapped against a paper towel after every wash to ensure maximum removal of blocking buffer.
100 μL of MicroScint-20 (PerkinElmer 6013621) was added to the wells and kept overnight at room temperature before reading the plates in TopCount NXT™ Microplate Scintillation and Luminescence Counter from PerkinElmer under 3H Test protocol (set at 120 seconds reading time per well, with normal plate orientation).
as §1, §2

IC50 (Human IBAT) [nM] | IC50 (Human LBAT) [nM] | Structure (SMILES)
10 | 5410 | CCCCC1(CCCC)CN(c2ccc(F)cc2)c2cc(SC)c(OCC(OC)C(=O)O)cc2S(=O)(=O)C1 (stereo not shown) [Example 9, 3-((3,3-dibutyl-5-(4-fluorophenyl)-7-(methylthio)-1,1-dioxido-2,3,4,5-tetrahydro-1,5-benzothiazepin-8-yl)oxy)-2-methoxypropanoic Acid]
122 | 1050 | CCCCC1(C)CN(c2ccc(F)cc2)c2cc(SC)c(OCC(O)C(=O)O)cc2S(=O)(=O)C1 (single isomer, unassigned) [1, diastereomer 4]
338 | 83 | CCC1(CC)CN(c2ccccc2)c2cc(SC)c(OCC(C)(F)C(=O)O)cc2S(=O)(=O)C1 (stereo not shown) [Example 6, 3-((3,3-diethyl-7-(methylthio)-1,1-dioxido-5-phenyl-2,3,4,5-tetrahydro-1,5-benzothiazepin-8-yl)oxy)-2-fluoro-2-methylpropanoic Acid]
770 | 119 | CCCCC1(CC)CN(c2ccc(F)cc2)c2cc(SC)c(OCC(C)(C)C(=O)O)cc2S(=O)(=O)C1 (single isomer, unassigned) [5, enantiomer 2]
256 | 21 | CCC1(CC)CN(c2ccc(F)cc2)c2cc(SC)c(OCC(C)(C)C(=O)O)cc2S(=O)(=O)C1 [Example 13, 3-((3,3-diethyl-5-(4-fluorophenyl)-7-(methylthio)-1,1-dioxido-2,3,4,5-tetrahydro-1,5-benzothiazepin-8-yl)oxy)-2,2-dimethylpropanoic Acid]
258 | 1080 | CCCCC1(CC)CN(c2ccc(F)cc2)c2cc(SC)c(OCC3(C(=O)O)CC3)cc2S(=O)(=O)C1 (single isomer, unassigned) [3, enantiomer 2]
4 | > 2220 | CCCCC1(CCCC)CN(c2ccc(F)cc2)c2cc(SC)c(OCC(OC)C(=O)O)cc2S(=O)(=O)C1 (single isomer, unassigned) [10, enantiomer 2]
10 | – | CCCCC1(CC)CN(c2ccc(F)cc2)c2cc(SC)c(OCC(OCC)C(=O)O)cc2S(=O)(=O)C1 (stereo not shown) [Example 11, 3-((3-butyl-3-ethyl-5-(4-fluorophenyl)-7-(methylthio)-1,1-dioxido-2,3,4,5-tetrahydro-1,5-benzothiazepin-8-yl)oxy)-2-ethoxypropanoic Acid]
2 | 2020 | CCCCC1(C)CN(c2ccc(F)cc2)c2cc(SC)c(OCC(O)C(=O)O)cc2S(=O)(=O)C1 (single isomer, unassigned) [1, diastereomer 2]
30 | 3680 | CCCC1(CCC)CN(c2ccccc2)c2cc(SC)c(OCC(O)C(=O)O)cc2S(=O)(=O)C1 (stereo not shown) [Example 14, 2-Hydroxy-3-((7-(methylthio)-1,1-dioxido-5-phenyl-3,3-dipropyl-2,3,4,5-tetrahydro-1,5-benzothiazepin-8-yl)oxy)propanoic Acid]
37 | 173 | CCCCC1(CC)CN(c2ccc(F)cc2)c2cc(SC)c(OCC(C)(C)C(=O)O)cc2S(=O)(=O)C1 (racemic) [Example 4, 3-((3-butyl-3-ethyl-5-(4-fluorophenyl)-7-(methylthio)-1,1-dioxido-2,3,4,5-tetrahydro-1,5-benzothiazepin-8-yl)oxy)-2,2-dimethylpropanoic Acid]
4 | 2990 | CCCCC1(CC)CN(c2ccc(F)cc2)c2cc(SC)c(OCC(OC)C(=O)O)cc2S(=O)(=O)C1 (stereo not shown) [Example 8, 3-((3-butyl-3-ethyl-5-(4-fluorophenyl)-7-(methylthio)-1,1-dioxido-2,3,4,5-tetrahydro-1,5-benzothiazepin-8-yl)oxy)-2-methoxypropanoic Acid]
11 | 320 | CCCCC1(CC)CN(c2ccc(F)cc2)c2cc(SC)c(OCC3(C(=O)O)CC3)cc2S(=O)(=O)C1 (racemic) [Example 2, 1-(((3-butyl-3-ethyl-5-(4-fluorophenyl)-7-(methylthio)-1,1-dioxido-2,3,4,5-tetrahydro-1,5-benzothiazepin-8-yl)oxy)methyl)cyclopropane-1-carboxylic Acid]
61 | 921 | CCCCC1(C)CN(c2ccc(F)cc2)c2cc(SC)c(OCC(O)C(=O)O)cc2S(=O)(=O)C1 (single isomer, unassigned) [1, diastereomer 3]
40 | > 6670 | CCCCC1(CCCC)CN(c2ccc(F)cc2)c2cc(SC)c(OCC(OC)C(=O)O)cc2S(=O)(=O)C1 (single isomer, unassigned) [10, enantiomer 1]
3 | 1250 | CCCCC1(CCCC)CN(c2ccccc2)c2cc(SC)c(OCC(OCC)C(=O)O)cc2S(=O)(=O)C1 (stereo not shown) [Example 12, 3-((3,3-dibutyl-7-(methylthio)-1,1-dioxido-5-phenyl-2,3,4,5-tetrahydro-1,5-benzothiazepin-8-yl)oxy)-2-ethoxypropanoic Acid]
